The supplement of paper PMC11061612

Tests used:
Experiment in all cases: Bliss excess, mean over the matrix (fraction); higher = more synergy
RD (Rhabdomyosarcoma) = test system: RD (Rhabdomyosarcoma)
How it was run: (§1)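 After 24 hours at 37°C and 5% CO2 in 1536-well plates, cells in DMEM/F12 or RPMI plus 10% FBS received two-drug dose matrices for 72 hours. Viability came from CellTiter-Glo 2.0 luminescence and was scaled as inhibition, anchored at 0 by vehicle wells and at 1 by blank wells. Combination Emax is taken as the second-highest inhibition in the matrix, and Bliss excess as the observed combination effect less EA + EB − EA·EB, with EA and EB the single-agent effects.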

[1] = test system: 8505C (Thyroid Gland Carcinoma)
How it was run: as §1

SJSA-1 (Osteosarcoma) = test system: SJSA-1 (Osteosarcoma)
How it was run: as §1

[2] = test system: NCCIT (Other Solid Carcinomas)
How it was run: as §1

[3] = test system: KY821 (Acute Myeloid Leukemia)
How it was run: as §1

[4] = test system: SNU-398 (Hepatocellular Carcinoma)
How it was run: as §1

[5] = test system: ST486 (Burkitt's Lymphoma)
How it was run: as §1

[6] = test system: MOLM-13 (Acute Myeloid Leukemia)
How it was run: as §1

[7] = test system: KMS-12-BM (Plasma Cell Myeloma)
How it was run: as §1

[8] = test system: NCI-H3122 (Lung Adenocarcinoma)
How it was run: as §1

[9] = test system: RPMI-8226 (Plasma Cell Myeloma)
How it was run: as §1

[10] = test system: NCI-H929 (Plasma Cell Myeloma)
How it was run: as §1

[11] = test system: DAN-G (Pancreatic Carcinoma)
How it was run: as §1

[12] = test system: KP-3 (Pancreatic Carcinoma)
How it was run: as §1

[13] = test system: NCI-H661 (Non-Small Cell Lung Carcinoma)
How it was run: as §1

[14] = test system: NCI-H520 (Squamous Cell Lung Carcinoma)
How it was run: as §1

[15] = test system: HCC1419 (Breast Carcinoma)
How it was run: as §1

[16] = test system: DMS-114 (Small Cell Lung Carcinoma)
How it was run: as §1

[17] = test system: HCC1187 (Breast Carcinoma)
How it was run: as §1

[18] = test system: MOG-G-CCM (Low Grade Glioma)
How it was run: as §1

Row | Compound | Bliss excess (RD (Rhabdomyosarcoma)) | Bliss excess [1] | Bliss excess (SJSA-1 (Osteosarcoma)) | Bliss excess [2] | Bliss excess [3] | Bliss excess [4] | Bliss excess [5] | Bliss excess [6] | Bliss excess [7] | Bliss excess [8] | Bliss excess [9] | Bliss excess [10] | Bliss excess [11] | Bliss excess [12] | Bliss excess [13] | Bliss excess [14] | Bliss excess [15] | Bliss excess [16] | Bliss excess [17] | Bliss excess [18]
1 | CN(C)CCCOc1ccc(-c2ccc3ncc4c(c3c2)n(C2CCOCC2)c(=O)n4C)cn1 [AZD0156] + CCN(CCO)CCCOc1ccc2c(Nc3cc(CC(=O)Nc4cccc(F)c4)[nH]n3)ncnc2c1 [AZD2811] (first compound max 1 µM, 7x7, partner max 1 µM) | -0.0374 | -0.0257 | -0.0348 | -0.0059 | 0.147 | -0.0184 | -0.11 | -0.0617 | 0.13 | -0.0048 | 0.0092 | 0.0125 | 0.0128 | -0.0417 | -0.0304 | 0.0012 | -0.0427 | -0.0209 | -0.0596 | -0.0228
2 | CCN(CCO)CCCOc1ccc2c(Nc3cc(CC(=O)Nc4cccc(F)c4)[nH]n3)ncnc2c1 [AZD2811] + O=C(c1cc(Cc2n[nH]c(=O)c3ccccc23)ccc1F)N1CCN(C(=O)C2CC2)CC1 [Olaparib] (first compound max 1 µM, 7x7, partner max 10 µM) | 0.0106 | -0.0228 | -0.0232 | -0.0195 | 0.0512 | -0.0223 | -0.0464 | -0.0094 | 0.0456 | 0.0018 | -0.0137 | 0.0305 | 0.0092 | -0.0484 | -0.0062 | 0.041 | -0.0532 | -0.0127 | -0.0668 | -0.041
3 | Cn1cnc2c(F)c(Nc3ccc(Br)cc3Cl)c(C(=O)NOCCO)cc21 [Selumetinib] + CCN(CCO)CCCOc1ccc2c(Nc3cc(CC(=O)Nc4cccc(F)c4)[nH]n3)ncnc2c1 [AZD2811] (first compound max 10 µM, 7x7, partner max 1 µM) | -0.0016 | -0.0546 | -0.0705 | -0.0657 | 0.05 | 0.0026 | 0.0872 | 0.0359 | 0.0832 | 0.0093 | 0.0053 | 0.01 | 0.0445 | -0.0293 | -0.0645 | -0.0221 | -0.0451 | -0.0166 | -0.0374 | -0.0745
4 | Cc1c2c(nn1C)CSCc1cc(n(C)n1)CSc1cc(c3ccccc3c1)OCCCc1c(C(=O)O)n(C)c3c-2c(Cl)ccc13 [AZD5991] + C1CN(CCC1(C(=O)N[C@@H](CCO)C2=CC=C(C=C2)Cl)N)C3=NC=NC4=C3C=CN4 [Capivasertib] (first compound max 1 µM, 7x7, partner max 3 µM) | 0.0465 | -0.0111 | -0.0248 | 0.076 | -0.0471 | 0.034 |  | -0.002 | 0.0127 | 0.0144 | 0.0079 | -0.0168 | -0.0535 | -0.0102 | 0.0375 | -0.0548 | 0.0163 | 0.0696 | -0.0023 | -0.0178
5 | CN(CCO)CC[C@H](CSc1ccccc1)Nc1ccc(S(=O)(=O)NC(=O)c2ccc(N3CCC([C@@H](O)c4ccccc4-c4ccc(Cl)cc4)CC3)cc2)cc1S(=O)(=O)C(F)(F)F [AZD4320] + CN(C)CCCOc1ccc(-c2ccc3ncc4c(c3c2)n(C2CCOCC2)c(=O)n4C)cn1 [AZD0156] (first compound max 1 µM, 7x7, partner max 1 µM) | -0.0172 | -0.0014 | 0.0377 | -0.0299 | 0.002 | -0.0009 | -0.0086 | -0.0649 | 0.0211 | -0.0486 | 0.0137 | -0.0267 | -0.0031 | -0.0462 | -0.0232 | -0.0185 | -0.0645 | -0.0466 | 0.0062 | -0.0155
6 | CCc1c2c(nc3ccc(O)cc13)-c1cc3c(c(=O)n1C2)COC(=O)[C@]3(O)CC [SN-38] + CN(C)CCCOc1ccc(-c2ccc3ncc4c(c3c2)n(C2CCOCC2)c(=O)n4C)cn1 [AZD0156] (first compound max 0.3 µM, 7x7, partner max 1 µM) | -0.0329 | 0.014 | -0.0469 | 0.0163 | 0.055 | 0.0255 | 0.0498 | 0.0493 | 0.0462 | 0.0427 | 0.0218 | -0.089 | 0.0626 | -0.0372 | 0.0286 | 0.0044 | -0.0773 | 0.0147 | -0.0347 | 0.0143
7 | Cn1cnc2c(F)c(Nc3ccc(Br)cc3Cl)c(C(=O)NOCCO)cc21 [Selumetinib] + C[C@@H]1COCCN1C2=NC(=NC(=C2)C3(CC3)[S@](=N)(=O)C)C4=C5C=CNC5=NC=C4 [AZD6738] (first compound max 10 µM, 7x7, partner max 10 µM) | 0.0877 | 0.111 | 0.0241 | -0.0802 | -0.0519 | 0.0082 | -0.0592 | 0.0491 | 0.0112 | -0.0471 | 0.0032 | -0.121 | 0.0105 | -0.0459 | -0.0627 | -0.0804 | -0.0522 | -0.0395 | -0.0539 | -0.0704
8 | C=CCn1c(=O)c2cnc(Nc3ccc(N4CCN(C)CC4)cc3)nc2n1-c1cccc(C(C)(C)O)n1 [AZD1775] + C1CN(CCC1(C(=O)N[C@@H](CCO)C2=CC=C(C=C2)Cl)N)C3=NC=NC4=C3C=CN4 [Capivasertib] (first compound max 3 µM, partner max 3 µM) | -0.034 | -0.101 | -0.0088 | 0.0254 | 0.0225 | 0.0054 | 0.0215 | 0.0263 | 0.0629 | -0.0298 | 0.0216 | -0.0234 | -0.0191 | 0.0131 | -0.0905 | -0.0771 | -0.005 | -0.0132 | 0.0216 | -0.0224
9 | COc1cccc(OCCCN)c1-c1cc(Nc2cnc(C#N)cn2)n[nH]1 [Prexasertib] + O=C(c1cc(Cc2n[nH]c(=O)c3ccccc23)ccc1F)N1CCN(C(=O)C2CC2)CC1 [Olaparib] (first compound max 1 µM, 7x7, partner max 10 µM) | -0.0444 | -0.0434 | -0.0639 | -0.103 | -0.0266 | -0.0572 | -0.0406 | -0.0224 | -0.0312 | 0.0161 | 0.0124 | -0.0638 | -0.0164 | -0.0444 | -0.0373 | -0.0756 | -0.0229 | 0.0146 | -0.0164 | -0.053
10 | CCN(CCO)CCCOc1ccc2c(Nc3cc(CC(=O)Nc4cccc(F)c4)[nH]n3)ncnc2c1 [AZD2811] + C[C@@H]1COCCN1C2=NC(=NC(=C2)C3(CC3)[S@](=N)(=O)C)C4=C5C=CNC5=NC=C4 [AZD6738] (first compound max 1 µM, 7x7, partner max 10 µM) | -0.0325 | -0.0514 | -0.0348 | -0.0506 | 0.105 | 0.007 | -0.0205 | -0.0161 | 0.0141 | -0.063 | -0.0178 | -0.0341 | -0.0427 | -0.0582 | -0.0567 | -0.0834 | -0.0757 | -0.0301 | -0.0841 | -0.0116
11 | Cc1cc2ncnn2cc1Nc1ncc2c(n1)n(C1CCOCC1)c(=O)n2C [AZD7648] + C[C@@H]1COCCN1C2=NC(=NC(=C2)C3(CC3)[S@](=N)(=O)C)C4=C5C=CNC5=NC=C4 [AZD6738] (first compound max 10 µM, 7x7, partner max 10 µM) | 0.0425 | -0.0223 | 0.0225 | 0.0116 | 0.0008 | -0.0097 | 0.0077 | 0.0003 | 0.0125 | 0.038 | -0.0744 | -0.0268 | -0.0093 | 0.0351 | 0.0522 | -0.0108 | -0.0221 | -0.0072 | 0.0005 | -0.062
12 | CC1(C)CCC(CN2CCN(c3ccc(C(=O)NS(=O)(=O)c4ccc(NCC5CCOCC5)c([N+](=O)[O-])c4)c(Oc4cnc5[nH]ccc5c4)c3)CC2)=C(c2ccc(Cl)cc2)C1 [Venetoclax] + CN(C)CCCOc1ccc(-c2ccc3ncc4c(c3c2)n(C2CCOCC2)c(=O)n4C)cn1 [AZD0156] (first compound max 1 µM, 7x7, partner max 1 µM) | -0.0332 | 0.0155 | -0.0358 | 0.0086 | -0.0104 | -0.0081 | 0.0106 | -0.126 | 0.0078 | -0.0656 | 0.0405 | 0.0294 | -0.0268 | -0.042 | 0.0037 | -0.048 | -0.0156 | -0.0436 | -0.0071 | -0.0198
13 | COc1nnc2ccc(N3CCC(c4ccc(OCCN5CCN(C)C(=O)[C@H]5C)cc4)CC3)nn12 [AZD5153] + CN(CC[C@H](CSC1=CC=CC=C1)NC2=C(C=C(C=C2)S(=O)(=O)NC(=O)C3=CC=C(C=C3)N4CCC(CC4)[C@H](C5=CC=CC=C5C6=CC=C(C=C6)Cl)O)S(=O)(=O)C(F)(F)F)CCO [AZD4320] (first compound max 1 µM, 7x7, partner max 1 µM) | 0.0526 | 0.0185 |  |  | 0.0111 | -0.0093 |  | 0.0205 | 0.0143 |  | -0.0027 |  | 0.0358 |  | 0.0102 |  | -0.0403 |  | 0.0165 | 
14 | C=CCn1c(=O)c2cnc(Nc3ccc(N4CCN(C)CC4)cc3)nc2n1-c1cccc(C(C)(C)O)n1 [AZD1775] + O=C(c1cc(Cc2n[nH]c(=O)c3ccccc23)ccc1F)N1CCN(C(=O)C2CC2)CC1 [Olaparib] (first compound max 1 µM, partner max 10 µM) | -0.0532 |  | -0.0262 | -0.0458 | 0.019 | -0.0396 | -0.0197 | 0.0405 | -0.0239 | -0.0111 | -0.0366 | -0.0525 | -0.0142 | -0.0118 | -0.0179 | -0.0057 | -0.047 | -0.021 | 0.0546 | -0.0542
